Data published in patent EP3383875B1, “3-PYRIMIDINYL PYRROLO [2,3-B] PYRIDINE AS ANTICANCER AGENTS AND THE PROCESS FOR THE PREPARATION THEREOF” (Council Of Scientific & Industrial Research, priority 2015, dated 2017).
Read-outs that look alike come from different tables or passages of the source.

Experiments:
MCF-7 = experiment: MTT assay on cancer cell line MCF-7; assay type: cell-based, Human; settings: Homo sapiens
Description: (§1) Cell culture, growth conditions and treatments. […] Different molecules were dissolved in DMSO and were delivered to cell cultures in complete medium.

PC-3 = experiment: MTT assay on cancer cell line PC-3; assay type: cell-based, human; settings: Homo sapiens, Table 9 (for reference), read-out: In vitro cell inhibition, % of inhibition, PC-3
Description: as §1

MDA-MB435 = experiment: MTT assay on cancer cell line MDA-MB435; assay type: cell-based, Human; settings: Homo sapiens, MDA-MB-435; MDA-MB435; at 10µM; Table 9 (for reference); read-out: In vitro cell inhibition, % of inhibition, MDA-MB435
Description: as §1

HCT-116 = experiment: MTT assay on cancer cell line HCT-116; assay type: cell-based, human; settings: Homo sapiens, at 10µM, Table 9 (for reference), read-out: In vitro cell inhibition, % of inhibition, HCT-116
Description: as §1

SHSY-5Y = experiment: MTT assay on cancer cell line SHSY-5Y; assay type: cell-based, human; settings: Homo sapiens, SH-SY5Y
Description: as §1

CDK-2/cyclin A = CDK-2/cyclin A (Homo sapiens, UniProt P24941); experiment: CDK inhibition assay, CDK-2/cyclin A against Histone HI, 33P-ATP; assay type: biochemical
Description: Compounds were evaluated for their ability to inhibit CDK2 and CDK9 as given below.
CDK-2/cyclin A (5-20 mU diluted in 50 mM Hepes pH 7.5, 1 mM DTT, 0.02% Brij35, 100 mM NaCl) was assayed against Histone HI in a final volume of 25.5 µl containing 50 mM Hepes pH7.5, 1 mM DTT, 0.02% Brij35, 100 mM NaCl, Histone HI (1 mg/ml), 10 mM magnesium acetate and 0.02 mM [33P-g-ATP](500-1000 cpm/pmole) and incubated for 30 min at room temperature. Assays were stopped by addition of 5 µl of 0.5 M (3%) orthophosphoric acid and then harvested onto P81 Unifilter plates with a wash buffer of 50 mM orthophosphoric acid.

CDK-9/Cyclin T1 = CDK-9/Cyclin T1 (Homo sapiens, UniProt P50750); experiment: CDK inhibition assay, CDK-9/Cyclin T1 against substrate peptide, 33P-ATP; assay type: biochemical
Chain of CDK-9/Cyclin T1 (P50750 whole entry): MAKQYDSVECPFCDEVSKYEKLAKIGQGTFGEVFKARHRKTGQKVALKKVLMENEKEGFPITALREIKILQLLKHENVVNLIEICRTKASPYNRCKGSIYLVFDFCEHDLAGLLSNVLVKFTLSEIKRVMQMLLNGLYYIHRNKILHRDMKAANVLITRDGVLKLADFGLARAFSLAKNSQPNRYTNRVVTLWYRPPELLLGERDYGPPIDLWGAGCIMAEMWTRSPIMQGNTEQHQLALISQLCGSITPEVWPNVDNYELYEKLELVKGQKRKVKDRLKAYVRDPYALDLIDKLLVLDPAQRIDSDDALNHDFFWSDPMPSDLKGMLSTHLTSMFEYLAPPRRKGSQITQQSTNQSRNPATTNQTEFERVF
Chain of CDK-9/Cyclin T1 (O60563 whole entry partner): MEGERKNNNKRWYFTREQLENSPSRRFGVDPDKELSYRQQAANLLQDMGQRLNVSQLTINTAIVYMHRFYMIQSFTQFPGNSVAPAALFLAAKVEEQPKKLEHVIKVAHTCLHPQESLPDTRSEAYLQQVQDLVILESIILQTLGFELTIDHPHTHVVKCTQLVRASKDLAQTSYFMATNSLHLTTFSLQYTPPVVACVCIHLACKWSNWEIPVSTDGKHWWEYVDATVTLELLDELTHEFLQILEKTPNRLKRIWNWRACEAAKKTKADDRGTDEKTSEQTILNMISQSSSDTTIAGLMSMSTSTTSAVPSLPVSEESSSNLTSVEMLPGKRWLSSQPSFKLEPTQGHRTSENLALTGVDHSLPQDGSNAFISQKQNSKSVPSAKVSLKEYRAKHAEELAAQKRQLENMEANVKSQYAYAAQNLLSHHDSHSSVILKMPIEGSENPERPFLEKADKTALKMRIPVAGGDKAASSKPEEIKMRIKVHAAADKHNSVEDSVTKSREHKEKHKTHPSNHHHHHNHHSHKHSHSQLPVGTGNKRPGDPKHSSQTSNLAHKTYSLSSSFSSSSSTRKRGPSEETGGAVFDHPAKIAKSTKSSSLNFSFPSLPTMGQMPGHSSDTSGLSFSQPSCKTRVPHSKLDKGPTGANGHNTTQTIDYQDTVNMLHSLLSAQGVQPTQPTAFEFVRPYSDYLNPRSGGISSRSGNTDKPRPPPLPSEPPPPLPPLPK
Description: (50-1000 cpm/pmole) and incubated for 30 min at room temperature. Assays were stopped by addition of 5 µl of 0.5 M (3%) orthophosphoric acid and then harvested onto P81 Unifilter plates with a wash buffer of 50 mM orthophosphoric acid.

[1] = MCF7, MCF-7, Table 9 (for reference), read-out: In vitro cell inhibition, % of inhibition, MCF-7
[2] = MCF7, read-out: inhibition against MCF-7 cell lines
[3] = SHSY-5Y, Table 9 (for reference), read-out: In vitro cell inhibition, % of inhibition, SHSY-5Y
[4] = read-out: inhibition against SHSY-5Y cell lines
[5] = at 500 nM, Table-6, read-out: In vitro CDK2 % of inhibition
[6] = at 500 nM, Table-6, read-out: In vitro CDK9 % of inhibition
[7] = at 500 nM, Table-7, read-out: In vitro CDK2 % of inhibition
[8] = at 500 nM, read-out: inhibition against CDK2
[9] = at 500 nM, Table-7, read-out: In vitro CDK9 % of inhibition
[10] = at 500 nM, read-out: inhibition against CDK9

| inhibition at 0.5 µM (CDK-2/cyclin A; [7]) [%] | inhibition at 0.5 µM (CDK-2/cyclin A; [8]) [%] | inhibition at 0.5 µM (CDK-9/Cyclin T1; [10]) [%] | Structure (SMILES) | inhibition at 10 µM (MCF-7; [1]) [%] | inhibition at 10 µM (MCF-7; [2]) [%] | inhibition at 10 µM (PC-3) [%] | inhibition at 10 µM (MDA-MB435) [%] | inhibition at 10 µM (HCT-116) [%] | inhibition at 10 µM (SHSY-5Y; [3]) [%] | inhibition at 10 µM (SHSY-5Y; [4]) [%] | other results |
| --- | --- | --- | --- | --- | --- | --- | --- | --- | --- | --- | --- |
| – | – | – | Nc1nccc(-c2c[nH]c3ncc(-c4cccnc4)cc23)n1 [1C15, 4-(5-(pyridin-3-yl)-1H-pyrrolo[2,3-b]pyridin-3-yl)pyrimidin-2-amine] | > 70 | > 70 | < 50 | > 70 | > 50 | > 70 | > 70 | – |
| – | – | – | CSc1ccc(-c2cnc3[nH]cc(-c4ccnc(N)n4)c3c2)cc1 [1C8, 4-(5-(4-(methylthio)phenyl)-1H-pyrrolo[2,3-b]pyridin-3-yl)pyrimidin-2-amine] | > 50 | > 50 | < 50 | > 70 | > 70 | > 50 | – | – |
| – | – | – | COc1ccc2[nH]c(-c3cnc4[nH]cc(-c5ccnc(N)n5)c4c3)cc2c1 [1C17, 4-(5-(5-methoxy-1H-indol-2-yl)-1H-pyrrolo[2,3-b]pyridin-3-yl)pyrimidin-2-amine] | > 70 | > 70 | > 50 | > 70 | > 70 | < 50 | – | – |
| – | – | – | Nc1nccc(-c2c[nH]c3ncc(-c4cc5ccccc5[nH]4)cc23)n1 [1C19, 4-(5-(1H-indol-2-yl)-1H-pyrrolo[2,3-b]pyridin-3-yl)pyrimidin-2-amine] | > 50 | > 70 | < 50 | > 50 | > 50 | > 70 | > 70 | – |
| – | – | – | COc1ccc(-c2cnc3[nH]cc(-c4ccnc(N)n4)c3c2)cc1 [1C11, 4-(5-(4-methoxyphenyl)-1H-pyrrolo[2,3-b]pyridin-3-yl)pyrimidin-2-amine] | > 50 | > 50 | < 50 | > 70 | > 70 | > 70 | > 70 | – |
| – | – | – | Nc1nccc(-c2c[nH]c3ncc(-c4ccoc4)cc23)n1 [1C16, 4-(5-(furan-3-yl)-1H-pyrrolo[2,3-b]pyridin-3-yl)pyrimidin-2-amine] | > 70 | > 70 | < 50 | > 70 | > 70 | > 70 | > 70 | – |
| – | – | – | Nc1nccc(-c2c[nH]c3ncc(-c4cc5ccccc5s4)cc23)n1 [1C18, 4-(5-(benzo[b]thiophen-2-yl)-1H-pyrrolo[2,3-b]pyridin-3-yl)pyrimidin-2-amine] | > 70 | – | > 70 | < 50 | > 70 | > 70 | > 70 | – |
| – | – | – | Nc1nccc(-c2c[nH]c3ncc(-c4ccc(Cl)cc4)cc23)n1 [1C12, 4-(5-(4-chlorophenyl)-1H-pyrrolo[2,3-b]pyridin-3-yl)pyrimidin-2-amine] | > 70 | > 70 | > 70 | > 70 | > 70 | > 70 | > 70 | – |
| – | – | – | Nc1nccc(-c2c[nH]c3ncc(-c4ccc(OC(F)(F)F)cc4)cc23)n1 [1C3, 4-(5-(4-(trifluoromethoxy)phenyl)-1H-pyrrolo[2,3-b]pyridin-3-yl)pyrimidin-2-amine] | > 70 | > 70 | > 50 | > 70 | > 70 | > 70 | > 70 | – |
| – | – | – | Nc1nccc(-c2c[nH]c3ncc(-c4ccc(C=O)cc4)cc23)n1 [1C13, 4-(3-(2-aminopyrimidin-4-yl)-1H-pyrrolo[2,3-b]pyridin-5-yl)benzaldehyde] | > 50 | > 50 | > 50 | > 50 | > 50 | > 50 | – | – |
| – | – | – | FC(F)(F)c1ccc(-c2cnc3[nH]cc(-c4ccnc(NC5CC5)n4)c3c2)cc1 [1A1, N-cyclopropyl-4-(5-(4-(trifluoromethyl)phenyl)-1H-pyrrolo[2,3-b]pyridin-3-yl)pyrimidin-2-amine] | – | – | – | – | – | – | – | inhibition at 0.5 µM (CDK-2/cyclin A; [5]): < 50%; inhibition at 0.5 µM (CDK-9/Cyclin T1; [6]): < 50% |
| > 70 | > 70 | > 70 | c1ccc2c(-c3cnc4[nH]cc(-c5ccnc(NC6CCCCCC6)n5)c4c3)nccc2c1 [1A60, N-cycloheptyl-4-(5-(isoquinolin-1-yl)-1H-pyrrolo[2,3-b]pyridin-3-yl)pyrimidin-2-amine] | – | – | – | – | – | – | – | inhibition at 0.5 µM (CDK-9/Cyclin T1; [9]): > 70% |
| – | – | – | COc1ccc2[nH]c(-c3cnc4[nH]cc(-c5ccnc(NC6CCCC6)n5)c4c3)cc2c1 [1A37, N-cyclopentyl-4-(5-(5-methoxy-1H-indol-2-yl)-1H-pyrrolo[2,3-b]pyridin-3-yl)pyrimidin-2-amine] | – | – | – | – | – | – | – | inhibition at 0.5 µM (CDK-2/cyclin A; [5]): > 70%; inhibition at 0.5 µM (CDK-9/Cyclin T1; [6]): > 70% |
| > 70 | > 70 | > 70 | Clc1ccc(-c2cnc3[nH]cc(-c4ccnc(NC5CCCCCC5)n4)c3c2)cc1 [1A52, 4-(5-(4-chlorophenyl)-1H-pyrrolo[2,3-b]pyridin-3-yl)-N-cycloheptylpyrimidin-2-amine] | – | – | – | – | – | – | – | inhibition at 0.5 µM (CDK-9/Cyclin T1; [9]): > 70% |
| – | – | – | c1ccc2c(-c3cnc4[nH]cc(-c5ccnc(NC6CCCC6)n5)c4c3)cccc2c1 [1A34, N-cyclopentyl-4-(5-(naphthalen-1-yl)-1H-pyrrolo[2,3-b]pyridin-3-yl)pyrimidin-2-amine] | – | – | – | – | – | – | – | inhibition at 0.5 µM (CDK-2/cyclin A; [5]): > 50%; inhibition at 0.5 µM (CDK-9/Cyclin T1; [6]): > 50% |
| – | > 70 | > 70 | FC(F)(F)Oc1ccc(-c2cnc3[nH]cc(-c4ccnc(NC5CC5)n4)c3c2)cc1 [1A3, N-cyclopropyl-4-(5-(4-(trifluoromethoxy)phenyl)-1H-pyrrolo[2,3-b]pyridin-3-yl)pyrimidin-2-amine] | – | – | – | – | – | – | – | inhibition at 0.5 µM (CDK-2/cyclin A; [5]): > 70%; inhibition at 0.5 µM (CDK-9/Cyclin T1; [6]): > 70% |
| – | > 50 | > 50 | c1ccc2c(-c3cnc4[nH]cc(-c5ccnc(NC6CC6)n5)c4c3)nccc2c1 [1A20, N-cyclopropyl-4-(5-(isoquinolin-1-yl)-1H-pyrrolo[2,3-b]pyridin-3-yl)pyrimidin-2-amine] | – | – | – | – | – | – | – | inhibition at 0.5 µM (CDK-2/cyclin A; [5]): > 50%; inhibition at 0.5 µM (CDK-9/Cyclin T1; [6]): < 50% |
| > 70 | > 70 | > 70 | c1cc(-c2c[nH]c3ncc(-c4ccoc4)cc23)nc(NC2CCCCCC2)n1 [1A56, N-cycloheptyl-4-(5-(furan-3-yl)-1H-pyrrolo[2,3-b]pyridin-3-yl)pyrimidin-2-amine] | – | – | – | – | – | – | – | inhibition at 0.5 µM (CDK-9/Cyclin T1; [9]): > 70% |
| > 50 | > 50 | > 50 | FC(F)(F)Oc1ccc(-c2cnc3[nH]cc(-c4ccnc(NCCc5ccccc5)n4)c3c2)cc1 [1B3, N-phenethyl-4-(5-(4-(trifluoromethoxy)phenyl)-1H-pyrrolo[2,3-b]pyridin-3-yl)pyrimidin-2-amine] | – | – | – | – | – | – | – | inhibition at 0.5 µM (CDK-9/Cyclin T1; [9]): > 50% |
| < 50 | – | – | CSc1ccccc1-c1cnc2[nH]cc(-c3ccnc(NC4CCCCCC4)n3)c2c1 [1A49, N-cycloheptyl-4-(5-(2-(methylthio)phenyl)-1H-pyrrolo[2,3-b]pyridin-3-yl)pyrimidin-2-amine] | – | – | – | – | – | – | – | inhibition at 0.5 µM (CDK-9/Cyclin T1; [9]): < 50% |
| > 50 | > 50 | > 50 | c1ccc(CCNc2nccc(-c3c[nH]c4ncc(-c5cc6ccccc6[nH]5)cc34)n2)cc1 [1B19, 4-(5-(1H-indol-2-yl)-1H-pyrrolo[2,3-b]pyridin-3-yl)-N-phenethylpyrimidin-2-amine] | – | – | – | – | – | – | – | inhibition at 0.5 µM (CDK-9/Cyclin T1; [9]): > 50% |

| Structure (SMILES) | inhibition at 0.5 µM (CDK-2/cyclin A; [7]) [%] | inhibition at 0.5 µM (CDK-2/cyclin A; [8]) [%] | inhibition at 0.5 µM (CDK-9/Cyclin T1; [10]) [%] | inhibition at 10 µM (MCF-7; [1]) [%] | inhibition at 10 µM (MCF-7; [2]) [%] | inhibition at 10 µM (PC-3) [%] | inhibition at 10 µM (MDA-MB435) [%] | inhibition at 10 µM (HCT-116) [%] | inhibition at 10 µM (SHSY-5Y; [3]) [%] | inhibition at 10 µM (SHSY-5Y; [4]) [%] | other results |
| --- | --- | --- | --- | --- | --- | --- | --- | --- | --- | --- | --- |
| c1ccc(CCNc2nccc(-c3c[nH]c4ncc(-c5ccoc5)cc34)n2)cc1 [1B16, 4-(5-(furan-3-yl)-1H-pyrrolo[2,3-b]pyridin-3-yl)-N-phenethylpyrimidin-2-amine] | > 70 | – | – | – | – | – | – | – | – | – | inhibition at 0.5 µM (CDK-2/cyclin A; read-out: inhibition against CDK2): > 70%; inhibition at 0.5 µM (CDK-9/Cyclin T1; read-out: In vitro CDK9 % of inhibition): > 70%; inhibition at 0.5 µM (CDK-9/Cyclin T1; read-out: inhibition against CDK9): > 70% |
